Experimental data reported in patent publication US9296708B2, “Chimeric small molecules for the recruitment of antibodies to cancer cells” (YALE UNIVERSITY, priority 2008, dated 2016).
Residues, ends and D or L forms follow the SMILES beside them.

Tests used:
Format in all cases: biochemical
[1] = target: T1, rhPSMA (Homo sapiens (Human), UniProt Q04609); experiment: PSMA inhibition assay (NAAG hydrolysis, Amplex Red); conditions: for IC50: mean of triplicate experiments ± SD
[2] = target: human recombinant PSMA (rhPSMA) (Homo sapiens (Human), UniProt Q04609); experiment: NAALADase inhibition experiments (Amplex Red glutamate release); conditions: human recombinant PSMA (R&D Research); average of three runs ± standard deviation
Procedure: A 10 mM stock solution of N-acetyl-aspartyl-glutamate (NAAG) in 40 mM NaOH was diluted to 40 μM in Tris buffer (0.1M Tris-HCl, pH=7.5), and was added to 384 well plate (25 μl per well). […] For IC50 measurements, solutions of recruiting molecule 3 in water (2 μL per well, dilution series) were added to wells. For all other wells, 2 μL of water was added. To initiate reactions, rhPSMA (R&D research) diluted in Tris buffer (20 pg/mL), was added to each well (25 μl per well). For negative controls, Tris buffer was added (25 μl per well). The plate was covered and incubated for 15 minutes, at which time the protein was deactivated by heating the plate to 95° C. for 3 minutes. After plate was allowed to cool, glutamic acid release was visualized using an Amplex®-Red glutamic acid/glutamate oxidase assay kit (Invitrogen). Km and IC50 values were calculated using graphpad prism software, and Ki was calculated from these values using the Cheng-Prusoff Equation. This process was run in triplicate, and is reported in the manuscript as the average of three runs±standard deviation.

[3] = target: T1, rhPSMA; experiment: Measurement of PSMA Km; conditions: NAAG substrate, 40 μM-312.5 nM, room temperature 15 min
Procedure: A 10 mM solution of N-acetyl-aspartylglutamate (NAAG) in 40 mM NaOH, and was then diluted in Reaction Buffer (100 mM Tris-HCl, pH 7.5) to a final NAAG concentration of 40 µM. The solution was added to a 384 well plate (20 µL per well). […] Reaction Buffer (20 µL) was added to the Km control series. The plate was incubated at room temperature for 15 min, and then heated to 95° C. for 3 minutes. The plate was allowed to cool to room temperature, and glutamic acid levels were measured using a commercially available Amplex®—Red Glutamic Acid/Glutamate Oxidase Assay Kit (Invitrogen). Fluorescence intensities were measured using a Synergy 2 multiwell plate reader (Biotek), fitted with excitation and emission filters of 545 nm and 590 nm, respectively. […] This value is consistent with that reported in the literature^7 and was employed in subsequent Ki calculations (see below).

[4] = Table 1, from IC50 and Km via Cheng-Prusoff equation
[5] = Table 2, Cheng-Prusoff equation, Km 925 nM

T1 sequence (Q04609 44-750): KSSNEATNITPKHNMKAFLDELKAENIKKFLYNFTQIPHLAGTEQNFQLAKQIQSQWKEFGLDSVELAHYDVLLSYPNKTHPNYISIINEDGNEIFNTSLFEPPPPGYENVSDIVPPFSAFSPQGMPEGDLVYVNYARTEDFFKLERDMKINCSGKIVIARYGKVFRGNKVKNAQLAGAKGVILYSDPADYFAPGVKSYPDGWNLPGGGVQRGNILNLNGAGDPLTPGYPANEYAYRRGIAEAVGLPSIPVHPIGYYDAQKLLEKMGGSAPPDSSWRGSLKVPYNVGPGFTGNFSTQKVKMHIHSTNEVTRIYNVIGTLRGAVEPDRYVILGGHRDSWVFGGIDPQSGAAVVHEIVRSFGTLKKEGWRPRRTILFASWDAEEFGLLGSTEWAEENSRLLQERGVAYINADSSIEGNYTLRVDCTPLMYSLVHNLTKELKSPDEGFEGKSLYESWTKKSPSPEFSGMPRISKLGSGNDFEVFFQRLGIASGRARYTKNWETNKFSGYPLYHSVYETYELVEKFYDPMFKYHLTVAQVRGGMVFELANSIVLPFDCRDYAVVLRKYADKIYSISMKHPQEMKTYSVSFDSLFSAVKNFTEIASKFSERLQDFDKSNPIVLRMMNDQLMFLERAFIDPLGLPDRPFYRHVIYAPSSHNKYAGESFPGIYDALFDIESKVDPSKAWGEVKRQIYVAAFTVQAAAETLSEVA
Chain of human recombinant PSMA (rhPSMA) (Q04609 44-750 limits assumed): as the sequence (Q04609 44-750) above

Structure (SMILES)	Ki [1, 4] [nM]	IC50 ([1]; Table 1, 20 μM NAAG) [nM]	Ki [1, 5] [nM]	IC50 ([1]; Table 2) [nM]	other results
COCc1cn(CCCC[C@H](NC(=O)N[C@@H](CCC(=O)O)C(=O)O)C(=O)O)nn1 [8, MeO-P0, (S)-2-(3-((S)-1-carboxy-5-(4-(methoxymethyl)-1H-1,2,3-triazol-1-yl)pentyl)ureido)pentanedioic acid]	1.35 ± 0.54	30.5 ± 12.1			
COCCOCCOCCOCCOCCOCCOCCOCCOCCOCCOCCOCCOCc1cn(CCCC[C@H](NC(=O)N[C@@H](CCC(=O)O)C(=O)O)C(=O)O)nn1 [12, MeO-P12, (S)-2-(3-((S)-5-(4-2,5,8,11,14,17,20,23,26,29,32,35,38-tridecaoxanonatriacontyl-1H-1,2,3-triazol-1-yl)-1-carboxypentyl)ureido)pentanedioic acid]	7.3 ± 2.6	165 ± 58.9			
O=C(O)CC[C@H](NC(=O)N[C@@H](CCCCn1cc(COCCOCCNc2ccc([N+](=O)[O-])cc2)nn1)C(=O)O)C(=O)O [Compound 14, (S)-2-(3((S)-1-carboxy-5-(4-((2-(2-(4-nitrophenylamino)ethoxy)ethoxy)methyl)-1H-1,2,3-triazol-1-yl)pentyl)ureido)pentanedioic acid]			0.06 ± 0.008	1.36 ± 0.18	Ki ([1]; Table 2 analogues): 0.078 nM
COc1ccc(NCCOCCOCc2cn(CCCC[C@H](NC(=O)N[C@@H](CCC(=O)O)C(=O)O)C(=O)O)nn2)cc1 [Compound 16, (S)-2-(3-((S)-1-carboxy-5-(4-((2-(2-(4-methoxyphenylamino)ethoxy)ethoxy)methyl)-1H-1,2,3-triazol-1-yl)pentyl)ureido)pentanedioic acid]			0.97	21.9 ± 9.9	Ki ([1]; Table 2 analogues): 0.97 nM
O=C(O)CC[C@H](NC(=O)N[C@@H](CCCCn1cc(CNc2ccc([N+](=O)[O-])cc2[N+](=O)[O-])nn1)C(=O)O)C(=O)O [1, ARM-P0, (S)-2-(3-((S)-1-carboxy-5-(4-((2,4-dinitrophenylamino)methyl)-1H-1,2,3-triazol-1-yl)pentyl)ureido)pentanedioic acid]	0.078 ± 0.018	1.76 ± 0.41			
O=C(O)CC[C@H](NC(=O)N[C@@H](CCCCn1cc(COCCOCCNC2CCCCC2)nn1)C(=O)O)C(=O)O [Compound 17, (S)-2-(3-((S)-1-carboxy-5-(4-((2-(2-(cyclohexylamino)ethoxy)ethoxy)methyl)-1H-1,2,3-triazol-1-yl)pentyl)ureido)pentanedioic acid]			15.1	342 ± 170	
O=C(O)CC[C@H](NC(=O)N[C@@H](CCCCn1cc(COCCOCCOCCOCCOCCOCCNc2ccc([N+](=O)[O-])cc2[N+](=O)[O-])nn1)C(=O)O)C(=O)O [5, ARM-P6]	0.101 ± 0.027	2.29 ± 0.6			
CC(C)(C)OC(=O)CC[C@H](NC(=O)N[C@@H](CCCCn1cc(COCCOCCOCCOCCNc2ccc([N+](=O)[O-])cc2[N+](=O)[O-])nn1)C(=O)OC(C)(C)C)C(=O)OC(C)(C)C [PC-ARM (3), (S)-di-tert-butyl 2-(3-((S)-1-tert-butoxy-6-(4-(13-(2,4-dinitrophenylamino)-2,5,8,11-tetraoxamidecyl)-1H-1,2,3-triazol-1-yl)-1-oxohexan-2-yl)ureido)pentanedioate]					Ki [2]: 0.9 ± 0.3 nM
COCCOCCOCc1cn(CCCC[C@H](NC(=O)N[C@@H](CCC(=O)O)C(=O)O)C(=O)O)nn1 [9, MeO-P2, (S)-2-(3-((S)-1-carboxy-5-(4-((2-(2-methoxyethoxy)ethoxy)methyl)-1H-1,2,3-triazol-1-yl)pentyl)ureido)pentanedioic acid]	1.81 ± 0.42	40.8 ± 9.4			
O=C(O)CC[C@H](NC(=O)N[C@@H](CCCCn1cc(COCCNc2ccc([N+](=O)[O-])cc2[N+](=O)[O-])nn1)C(=O)O)C(=O)O [2, ARM-P1, (S)-2-(3-((S)-1-carboxy-5-(4-((2-(2,4-dinitrophenylamino)ethoxy)methyl)-1H-1,2,3-triazol-1-yl)pentyl)ureido)pentanedioic acid]	0.047 ± 0.005	1.05 ± 0.11			
CC(=O)N[C@@H](CC(=O)O)C(=O)N[C@@H](CCC(=O)O)C(=O)O [NAAG, N-acetyl-aspartylglutamate] (Ac-Asp-Glu-OH)					Km [3]: 0.925 µM
O=C(O)CC[C@H](NC(=O)N[C@@H](CCCCn1cc(COCCOCCNc2ccccc2[N+](=O)[O-])nn1)C(=O)O)C(=O)O [Compound 13, (S)-2-(3-((S)-1-carboxy-5-(4-((2-(2-(2-nitrophenylamino)ethoxy)ethoxy)methyl)-1H-1,2,3-triazol-1-yl)pentyl)ureido)pentanedioic acid]			0.078 ± 0.007	1.78 ± 0.15	Ki ([1]; Table 2 analogues): 0.06 nM
O=C(O)CC[C@H](NC(=O)N[C@@H](CCCCn1cc(COCCOCCOCCOCCOCCOCCOCCOCCOCCOCCOCCOCCNc2ccc([N+](=O)[O-])cc2[N+](=O)[O-])nn1)C(=O)O)C(=O)O [7, ARM-P12]	1.65 ± 0.72	37.3 ± 16.2			
COCCOCCOCCOCCOCCOCCOCCOCCOCc1cn(CCCC[C@H](NC(=O)N[C@@H](CCC(=O)O)C(=O)O)C(=O)O)nn1 [11, MeO-P8, (S)-2-(3-((S)-5-(4-2,5,8,11,14,17,20,23,26-nonaoxaheptacosyl-1H-1,2,3-triazol-1-yl)-1-carboxypentyl)ureido)pentanedioic acid]	5.79 ± 2.54	131 ± 57.6			
O=C(O)CC[C@H](NC(=O)N[C@@H](CCCCn1cc(COCCOCCNc2ccccc2)nn1)C(=O)O)C(=O)O [Compound 15, (S)-2-(3-((S)-1-carboxy-5-(4-((2-(2-(phenylamino)ethoxy)ethoxy)methyl)-1H-1,2,3-triazol-1-yl)pentyl)ureido)pentanedioic acid]			0.73 ± 0.28	16.6 ± 6.3	Ki ([1]; Table 2 analogues): 0.73 nM
